Laboratory results published in paper PMC6821791, “Phase I Trial of Pyragrel, a Novel Thromboxane Synthetase Inhibitor, to Evaluate the Safety, Tolerability, and Pharmacokinetics in Healthy Volunteers” (Frontiers in Pharmacology, 2019).

How the values were obtained:
[1] = Part III multiple-dose study, plasma pharmacokinetics; type: in vivo, human; details: for AUCINF / AUClast / Cl / Cmax / Tmax / Vz / t1/2: metabolite in plasma
Description: (§1) Pyragrel administration regimens are as follows: In the single-escalating-dose study (Part I), a total of 52 subjects are enrolled to receive one of three treatments (pyragrel, ozagrel, or placebo, diluted in 500 Ml normal saline) as a 3-h i.v. infusion. Six dose levels of pyragrel (30, 60,120, 180, 240, 300 mg) were intravenously infused to healthy subjects. Of the 12 subjects each at the first three dose groups (30, 60, and 120 mg), 8 received pyragrel, 2 received ozagrel (80 mg), and 2 received placebo. Eight subjects were assigned as 4/2/2 for pyragrel, ozagrel, and placebo at the 180 mg level. Only four subjects were enrolled at the 240- and 300-mg group each; all received pyragrel. […] In the saline-volume-changed study (Part II), the safety and pharmacokinetics of pyragrel were assessed by decreasing the volume of dilution saline. Four subjects received a single 3 h infusion of pyragrel 240 mg diluted in 250 ml saline instead of the 500 ml used in Part I. Blood samples were collected at multiple time points before and after the initiation of the infusion in Part I and Part II; 15 blood samples were predetermined as follows: before drug administration (time 0), 0.5, 1, 2, 3 (4 samples collected during infusion), 3.25, 3.5, 4, 5, 7, 9, 11, 15, 24, and 48 h (10 samples collected post infusion) after the initiation of the infusion. In the multiple-dose study (Part III), 12 subjects received a single 3 h infusion of 180 mg pyragrel (diluted in 250 ml saline) on Day 1 and Day 6 and twice 3 h infusion of 180 mg pyragrel from Day 2 to 5; 14 blood samples were collected on Day 1 and Day 6 before drug administration (0 h), 0.5, 1, 2, 3, 3.25, 3.5, 4, 5, 7, 9, 11, 15, 24 h after the initiation of the infusion; moreover, 5 ml cubital vein blood was collected each time right before pyragrel infusion on Day 2 to Day 5. In the 3×3 crossover study (Part IV), 12 subjects were randomized to receive each of the three dosing groups (60, 120, or 240 mg) of pyragrel (diluted with 250 ml saline, 3 h infusion) per period, with a 7-day washout period between doses. Sixteen blood samples were collected as follows: before drug administration (0 h), 0.17, 0.35, 0.5, 1, 2, 3, 3.25, 3.5, 4, 5, 7, 9, 11, 15, and 24 h after the initiation of the infusion at each period. In the prolonged infusion study (Part V), four subjects received continuous 24 h infusion of pyragrel 360 mg (diluted in 600 ml saline); 19 blood samples were collected as follows: before drug administration (0 h), 0.25, 0.5, 1, 2, 4, 8, 12, 16, 20 (nine samples collected during administration), 24.25, 24.5, 25, 26, 28, 30, 32, 36, and 48 h after the initiation of the infusion (details shown in Figure 1 ). In all five cohorts, 5 ml of cubital vein blood was collected with a sodium heparin anticoagulant tube and centrifuged at 3000 r·min^-1. Each plasma sample was divided into two aliquots and stored at −20°C until further bioanalysis. […] Briefly, 10 µl of the extract drug from […] was injected onto a Zorbax EcLipse XDB C18 column (2.1 mm × 150 mm, 5 μm) (Agilent, USA) using isocratic elution with a mobile phase composed of methanol, water, and formic acid (65:35:0.1, v/v/v). Determination of the analytes was achieved by tandem-mass spectrometry with positive electrospray ionization.
(§2) Pharmacokinetic parameters were calculated using the noncompartmental model (NCA module), WinNonlin 6.1 (Pharsight Corporation, Mountain View, CA, USA). Statistical analysis was performed with SPSS 18. The actual dosing and sampling times were utilized in the analysis. Pharmacokinetic parameters were summarized by dose regimens using descriptive statistics, including n, mean, and the coefficient of variation (CV). For Tmax, only n, min, median, and max were reported.

[2] = Part IV urinary excretion of pyragrel and four metabolites; type: in vivo, human; details: n=12, Mean ± SD
Description: Urine samples were collected after the initiation of pyragrel infusion as follows in Part IV: 0–3 (3 h infusion period), 3–7, 7–11, 11–15, and 15–24 h after pyragrel administration during each period. […] Production of 11-dehydro-thrombxane B2 (11-D-HTXB2) in urine sample was detected by ELISA method.

[3] = Part II saline-volume-changed study, plasma pharmacokinetics; type: in vivo, human; details: single-dose infusion of 240 mg pyragrel diluted in 250 ml saline, n=4
Description: as §1, §2

[4] = Part IV 3×3 crossover study, plasma pharmacokinetics; type: in vivo, human; details: n=12
Description: as §1, §2
In Part IV, a multivariate ANOVA model containing subjects, treatments (60, 120, or 240 mg), periods, and gender was used to analyze log-transformed Cmax and AUC. Tmax was analyzed using various related Friedman nonparametric tests.

[5] = Acute toxicity study in mice; type: in vivo
[6] = Part III, multiple dose i.v. infusion of 180 mg pyragrel
[7] = metabolite in plasma after pyragrel 60 mg
[8] = metabolite in plasma after pyragrel 120 mg
[9] = metabolite in plasma after pyragrel 240 mg

Compound: COc1cc(CCC(=O)O)ccc1OCc1nc(C)c(C)nc1C [BBS]
- AUCINF [1, 6]: 7.02746 ± 3.01792 µg·h/mL
- AUClast [1, 6]: 6.79736 ± 2.91919 µg·h/mL
- Cl [1, 6]: 35.50 ± 18.33 L/h
- Cmax [1, 6]: 1356.91 ± 564.13 µg/L
- Tmax [1, 6]: 3.19 ± 0.11 h
- Vz [1, 6]: 152.37 ± 94.36 L
- t1/2 [1, 6]: 6.07 ± 2.11 h
- R ([1]; Part III, metabolite, multiple vs single dose of 180 mg pyragrel, footnote d not given): 1.27 ± 0.13
- AA ([1]; Part III, metabolite, multiple vs single dose of 180 mg pyragrel, footnote e not given): 1.13 ± 0.24
- AUCINF ([1]; single dose of 180 mg pyragrel): 6.14579 ± 2.33986 µg·h/mL
- AUClast ([1]; single dose of 180 mg pyragrel): 6.02222 ± 2.29172 µg·h/mL
- Cl ([1]; single dose of 180 mg pyragrel): 36.52 ± 23.08 L/h
- Cmax ([1]; single dose of 180 mg pyragrel): 1324.23 ± 447.99 µg/L
- Tmax ([1]; single dose of 180 mg pyragrel): 3.25 ± 0.15 h
- Vz ([1]; single dose of 180 mg pyragrel): 285.61 ± 221.29 L
- t1/2 ([1]; single dose of 180 mg pyragrel): 5.31 ± 1.42 h
- Accumulation on repeated dose, in words ([1]; repeated dose of pyragrel 180 mg for 6 days (once- or twice-daily dosing)): no accumulation
- Cumulative urinary drug recovery (normalized to pyragrel) within 24 h ([2]; single dose of pyragrel 60 mg): 3.90 ± 2.11%
- Cumulative urinary drug recovery (normalized to pyragrel) within 24 h ([2]; single dose of pyragrel 120 mg): 1.93 ± 0.85%
- Cumulative urinary drug recovery (normalized to pyragrel) within 24 h ([2]; single dose of pyragrel 240 mg): 2.75 ± 0.97%
- AUCINF [3]: 10.315 ± 5.47287 µg·h/mL
- AUClast [3]: 10.0859 ± 5.35726 µg·h/mL
- Cl [3]: 36.06 ± 33.86 L/h
- Cmax [3]: 2066.22 ± 977.65 µg/L
- MRTINF [3]: 4.13 ± 0.70 h
- MRTlast [3]: 3.50 ± 0.74 h
- Tmax [3]: 3.19 ± 0.24 h
- Vz [3]: 372.66 ± 424.67 L
- t1/2 [3]: 6.31 ± 1.38 h
- λz [3]: 0.11 ± 0.03 h⁻¹
- AUCINF [4, 7]: 1.88293 ± 0.53437 µg·h/mL
- AUClast [4, 7]: 1.8219 ± 0.49675 µg·h/mL
- Cl [4, 7]: 34.77 ± 11.33 L/h
- Cmax [4, 7]: 373.16 ± 101.22 µg/L
- Tmax [4, 7]: 3.29 ± 0.18 h
- Vz [4, 7]: 261.4 ± 115.98 L
- t1/2 [4, 7]: 5.12 ± 1.17 h
- AUCINF [4, 8]: 4.03627 ± 1.18662 µg·h/mL
- AUClast [4, 8]: 3.96983 ± 1.1843 µg·h/mL
- Cl [4, 8]: 32.54 ± 10.86 L/h
- Cmax [4, 8]: 837.84 ± 228.5 µg/L
- Tmax [4, 8]: 3.27 ± 0.17 h
- Vz [4, 8]: 250.94 ± 149.96 L
- t1/2 [4, 8]: 5.08 ± 1.38 h
- AUCINF [4, 9]: 9.57213 ± 3.7488 µg·h/mL
- AUClast [4, 9]: 9.44071 ± 3.71786 µg·h/mL
- Cl [4, 9]: 30.04 ± 16.36 L/h
- Cmax [4, 9]: 2041.56 ± 684.12 µg/L
- Tmax [4, 9]: 3.25 ± 0.18 h
- Vz [4, 9]: 212.93 ± 126.27 L
- LD50 [5]: > 929.7 mg/kg
